Data published in PMC12977544, “Phenotypic high-throughput screening identifies modulators of gut microbial choline metabolism” (mBio, 2026).

Assays:
[1] = tested on: germ-free C57BL/6 mice colonized with defined community incl. E. coli MS 200-1; assay: Serum TMAO in gnotobiotic mice after inhibitor treatment; format: in vivo, Mus musculus C57BL/6
Description: One milliliter of culture from each of the six individually grown strains was added to create this mixed culture. In a biosafety cabinet, a 300 mg/mL stock of sterile inhibitor in filter-sterilized DMSO was prepared. After this preparation, a working solution of 3 mg/mL of the inhibitor stock in sterile 1% hydroxyethyl cellulose/1% polysorbate 80 was prepared within 4 days of gavaging the mice and stored at room temperature. A low dose of the inhibitor was also prepared, using a working solution of 0.3 mg/mL of the inhibitor stock in sterile 1% hydroxyethyl cellulose/1% polysorbate 80. The vehicle was prepared in the same way with DMSO without inhibitor. […] Two weeks after colonization, mice were administrated by gavage with 3 mg/kg of the inhibitor or vehicle between 6 and 8 a.m. once a day for three consecutive days. After a 10-day washout period, mice were orally administered 30 mg/kg of the inhibitor once a day (same time as above) for three consecutive days, and blood was collected 24 h after the last gavage. A fecal sample was collected before the first gavage. At sacrifice, tissues collected were blood, cecal contents, a fecal pellet, proximal colon, distal small intestine, liver, and kidney. Mice were anesthetized with isoflurane and underwent cardiac puncture for a terminal blood draw, followed by cervical dislocation. Tissues were snap-frozen in liquid nitrogen. Blood was spun down at 8,000 × g for 8 min at room temperature; the resulting serum layer was removed and snap-frozen. All snap-frozen tissues were stored at -80°C until needed. One volume of plasma and 4 volumes of ice-cold extraction solution (HPLC-grade methanol with 2.5 μM d9-TMAO internal standard) were combined and spun at 21,100 × g for 3 min at 4°C. One volume of the resulting supernatant was then mixed with 1 volume of HPLC-grade water. […] was used for peak quantification, and internal standards were utilized as a comparison to calculate plasma concentrations. Statistical significance was calculated using an unpaired t-test.

[2] = tested on: E. coli MS 200-1; assay: Growth-based phenotypic high-throughput screen (OD600 Z-scores, choline vs glycerol NCE medium); format: cell-based, Escherichia coli MS 200-1; conditions: 20 µg/mL; for Z-score from HTS, Zcho at T1 / Z-score from HTS, Zcho at T2: choline NCE medium; for Z-score from HTS, Zcho at T1 / Z-score from HTS, Zgly at T1: 7 h; for Z-score from HTS, Zcho at T2 / Z-score from HTS, Zgly at T2: 20 h; for Z-score from HTS, Zgly at T1 / Z-score from HTS, Zgly at T2: glycerol NCE medium
Description: The primary screen was performed in duplicate using the ChemDiv7 commercial library from the Institute of Chemistry and Cell Biology–Longwood (ICCB-L) Screening Facility, consisting of 49,128 compounds (Fig. 1D). Each compound was tested at a concentration of 20 µg/mL.
NCE media was adapted based on the “no carbon E” media as previously described ([14]), and contains 29 mM potassium phosphate monobasic, 29 mM potassium phosphate dibasic, 17 mM ammonium sodium phosphate dibasic, 40 mM sodium fumarate dibasic, 0.1% (wt/vol) casamino acids, and either 20 mM choline chloride or 3 g/L glycerol. This mixture was supplemented with 1 mM magnesium sulfate, 1% ATCC vitamin supplement, and 1% ATCC trace mineral supplement.
Compounds from the Institute of Chemistry and Cell Biology-Longwood Screening Facility (ICCB-L) commercial ChemDiv7 library were transferred to 384-well plates at 5 mg/mL in DMSO.
E. coli was grown anaerobically in LB media containing 1 mM choline chloride overnight at 37°C and then resuspended (two log-fold dilution) in either NCE media supplemented with 20 mM choline or 3 g/L glycerol for screening. The E. coli cultures were then added to the compound plates and incubated at 37°C anaerobically. The final concentration of compounds in culture was 20 µg/mL. OD600 was measured at 7 h and 20 h in duplicate compound plates. For control, 60 µg/mL kanamycin was used. Z-scores of each compound were calculated by measuring the number of standard deviations of each well’s OD600 with respect to the plate’s mean OD600. Compounds with a Z-score of less than –2 on choline but more than or equal to 0 on glycerol, in at least one replicate plate, were selected for further validation. Z’ was calculated using the control columns, as an internal quality control.

[3] = first value of cell (replicate plate)
[4] = second value of cell (replicate plate)

SMILES | Serum TMAO level relative to vehicle treatment ([1]; gnotobiotic mice, 30 mg/kg oral gavage daily for 3 days, 1% choline diet, 24 h after last dose, P = 0.054) | Decrease of serum TMAO levels ([1]; gnotobiotic mice, 30 mg/kg, n = 8, P = 0.054) | Decrease of TMAO levels compared to vehicle treatment ([1]; in vivo, mouse model not given) | Z-score from HTS, Zcho at T1 [2, 3] | Z-score from HTS, Zcho at T1 [2, 4] | Z-score from HTS, Zcho at T2 [2, 3] | Z-score from HTS, Zcho at T2 [2, 4] | Z-score from HTS, Zgly at T1 [2, 3] | Z-score from HTS, Zgly at T1 [2, 4] | Z-score from HTS, Zgly at T2 [2, 3] | Z-score from HTS, Zgly at T2 [2, 4]
Cc1ccc(-c2cc(C(=O)NCCCCCN3CCCCCC3)c(C)[nH]2)cc1C [Compound 45] | about 60 % of vehicle treatment | ~ 40% | approximately 40% | – | – | – | – | – | – | – | –
Cc1ccc(-c2cc(C(=O)NCCCN3CCc4ccccc4C3)c(C)[nH]2)cc1C [Compound 5] | – | – | – | −4.27 | –4.23 | 0.16 | –0.06 | −1.42 | 0.61 | 0.83 | 1.41
